Laboratory results published in patent US9035052B2, “Compositions of azimilide dihydrochloride” (WARNER CHILCOTT COMPANY, LLC, priority 2006, dated 2015).

Tests used:
[1] = Stability / water uptake of the solid state forms on exposure to relative humidity; type: physicochemical
[2] = Apparent water solubility and dissolution of the solid state forms

CN1CCN(CCCCN2C(=O)CN(/N=C/c3ccc(-c4ccc(Cl)cc4)o3)C2=O)CC1.Cl.Cl [hemi-hydrate, (E)-1-[[[5-(4-chlorophenyl)-2-furanyl]methylene]amino]-3-[4-(4-methyl-1-piperazinyl)butyl]-2,4-imidazolidinedione dihydrochloride]
water content stability ([1]; room temperature, relative humidity range of 12% to 85% RH): stable
dissolution rate compared with the anhydrate form ([2]; water): more rapid
solubility ([2]; water, apparent water solubility, room temperature): ~170 mg/mL

CN1CCN(CCCCN2C(=O)CN(/N=C/c3ccc(-c4ccc(Cl)cc4)o3)C2=O)CC1.Cl.Cl [isopropanol solvate, (E)-1-[[[5-(4-chlorophenyl)-2-furanyl]methylene]amino]-3-[4-(4-methyl-1-piperazinyl)butyl]-2,4-imidazolidinedione dihydrochloride]
solid form conversion on humidity exposure ([1]; 85% relative humidity): converts to the anhydrate form within days to weeks
stability upon exposure to humidity ([1]; exposure to humidity): not stable
apparent water solubility ([2]; water, room temperature, dihydrochloride): 220 mg/mL

CN1CCN(CCCCN2C(=O)CN(/N=C/c3ccc(-c4ccc(Cl)cc4)o3)C2=O)CC1.Cl.Cl [anhydrate, (E)-1-[[[5-(4-chlorophenyl)-2-furanyl]methylene]amino]-3-[4-(4-methyl-1-piperazinyl)butyl]-2,4-imidazolidinedione dihydrochloride]
hygroscopicity (water uptake) ([1]; room temperature, 85% relative humidity, up to 4 weeks): no evidence of water uptake
solubility as per the USP definition of solubility [2]: freely soluble
solubility ([2]; water): 160 mg/mL
